In patent US20030215462A1, “Use of UGT inhibitors to increase bioavailability” (priority 2001, published 2003):
“And” between values parts separate entries of the source, which are not always exact repeats. Equal values may be shown once.

What was measured:
[1] = target: T1, UGT1A9 (Homo sapiens, UniProt O60656); experiment: Inhibition of raloxifene glucuronidation by recombinant UGT1A9 Supersomes; settings: for Inhibition of raloxifene glucuronidation, UGT1A9, first line per inhibitor (G1): first line (G1, metabolite not given); for Inhibition of raloxifene glucuronidation, UGT1A9, first line per inhibitor (G1) / Inhibition of raloxifene glucuronidation, UGT1A9, second line per inhibitor (G2): raloxifene 50 μM, 250 μg/ml Supersomes, 1 mM UDPGA, 15 min; for activity at 15 min, 2 μM / activity at 15 min, 5 µM / activity at 15 min, 10 µM / activity at 15 min, 25 µM / activity at 15 min, 50 µM: human, Supersomes with recombinant human UGT1A9, pH 7.5, probe raloxifene 50 μM; for Inhibition of raloxifene glucuronidation, UGT1A9, second line per inhibitor (G2): second line (G2, metabolite not given)
T1 sequence (O60656 26-530): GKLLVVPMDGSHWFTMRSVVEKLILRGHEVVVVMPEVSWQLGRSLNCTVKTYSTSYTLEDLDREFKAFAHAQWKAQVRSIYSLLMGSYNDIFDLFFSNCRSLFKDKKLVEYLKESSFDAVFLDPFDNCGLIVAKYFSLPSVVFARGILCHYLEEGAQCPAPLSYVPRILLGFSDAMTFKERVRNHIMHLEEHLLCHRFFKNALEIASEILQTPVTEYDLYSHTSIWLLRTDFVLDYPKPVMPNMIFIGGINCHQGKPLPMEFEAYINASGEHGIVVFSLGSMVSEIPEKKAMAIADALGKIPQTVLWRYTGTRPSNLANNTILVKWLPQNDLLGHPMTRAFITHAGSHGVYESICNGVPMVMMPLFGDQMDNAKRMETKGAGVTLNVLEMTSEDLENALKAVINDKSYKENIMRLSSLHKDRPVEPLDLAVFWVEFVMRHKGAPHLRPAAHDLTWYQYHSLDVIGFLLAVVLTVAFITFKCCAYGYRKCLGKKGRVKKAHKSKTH

[2] = system: T2, UGT enzymes of human liver microsomes; experiment: Inhibition of 7-HFC glucuronidation in human liver microsomes; format: biochemical; settings: for % of control metabolism (SD, n = 3), 7-HFC glucuronidation: 7-HFC 50 μM, human liver microsomes 100 μg/ml, 15 min
T2 construct: percentage of control metabolism, 7-HFC glucuronidation; percentage of control metabolism, 7-HFC glucuronidation

[3] = system: UGT enzymes of human liver microsomes; experiment: Inhibition of estradiol (E2) glucuronidation in human liver microsomes; format: biochemical; settings: E2 50 μM
From the text: (§1) Compounds were eluted using a binary solvent gradient system where solvent A was dilute phosphoric acid (pH 3) and solvent B was 80:20 acetonitrile-methanol. […] Detection was at 280 nm.

[4] = system: T3, UGT enzymes of human liver microsomes; experiment: as above; format: biochemical; settings: liver 032101; E2 50 μM; inhibitor 100 μM
T3 construct: residual metabolism (% of control), E2-17-β-D-glucuronide; other: liver 032101; residual metabolism (% of control), E2-17-β-D-glucuronide
From the text: as §1

[5] = system: T4, UGT enzymes of human liver microsomes; experiment: as above; format: biochemical; settings: liver 032101; E2 50 μM; inhibitor 100 μM
T4 construct: residual metabolism (% of control), E2-3-β-D-glucuronide; other: liver 032101; residual metabolism (% of control), E2-3-β-D-glucuronide
From the text: as §1

[6] = system: UGT enzymes of pooled human jejunum microsomes; experiment: Inhibition of raloxifene glucuronidation (G1, G2) in pooled human jejunum microsomes; format: biochemical; settings: jejunum HJ61; inhibitor 10 μM
Description: Compounds were eluted using a binary solvent gradient system. […] Solvent B was methanol. […] Detection was at 280 nm.
Standardized incubations utilized […] microsomal protein, 1 mM UDPGA and a 30 min incubation time.

[7] = target: T5, UGT1A1 (Homo sapiens, UniProt P22309); experiment: Inhibition of raloxifene glucuronidation by recombinant UGT1A1 Supersomes; settings: human; for activity at 15 min, 10 µM: inhibitor 10 μM; for activity at 15 min, 25 µM: inhibitor 25 μM; for activity at 15 min, 50 µM: inhibitor 50 μM
T5 sequence (P22309 26-533): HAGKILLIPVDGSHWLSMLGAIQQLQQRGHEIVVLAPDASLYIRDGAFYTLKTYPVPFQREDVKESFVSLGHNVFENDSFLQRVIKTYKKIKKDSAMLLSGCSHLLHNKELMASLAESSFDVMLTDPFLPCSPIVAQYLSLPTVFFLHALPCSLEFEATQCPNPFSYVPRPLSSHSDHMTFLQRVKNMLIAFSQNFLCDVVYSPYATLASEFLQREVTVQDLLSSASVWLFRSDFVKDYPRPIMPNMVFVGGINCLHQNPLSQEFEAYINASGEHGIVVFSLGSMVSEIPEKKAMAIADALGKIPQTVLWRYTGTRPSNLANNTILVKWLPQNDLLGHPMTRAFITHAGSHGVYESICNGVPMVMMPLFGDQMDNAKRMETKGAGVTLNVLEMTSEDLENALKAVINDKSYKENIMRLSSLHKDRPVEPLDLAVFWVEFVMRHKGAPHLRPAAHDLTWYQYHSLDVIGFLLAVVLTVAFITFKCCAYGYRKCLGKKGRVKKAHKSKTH
Description: Compounds were eluted using a binary solvent gradient system. Solvent A was water brought to pH 8 with NH4OH. Solvent B was methanol. Solvent flow rate was 1 ml/min and the column temperature was maintained at 50° C. Detection was at 280 nm. […] The system was then returned to the initial conditions and equilibrated for 3 min.

[8] = system: T6, UGT enzymes of human liver microsomes; experiment: Inhibition of labetalol glucuronidation (LG1, LG2) in human liver microsomes; format: biochemical; settings: labetalol 50 μM
T6 construct: residual metabolism (percentage of control), labetalol LG1; other: labetalol 50 μM; residual metabolism (percentage of control), labetalol LG1; residual metabolism (percentage of control), labetalol LG2; inhi

[9] = system: T2, UGT enzymes of human liver microsomes; experiment: Kinetic and Ki studies of inhibitors of 7-HFC glucuronidation in human liver microsomes; format: biochemical; settings: 7-HFC 20-500 μM
[10] = system: UGT enzymes of pooled human jejunum microsomes; experiment: Inhibition of estradiol (E2) glucuronidation in pooled human jejunum microsomes; format: biochemical; settings: jejunum HJ61, E2 50 μM
From the text: as §1

[11] = Supersomes with recombinant human UGT1A1, pH 7.5, probe raloxifene 50 μM, formation of glucuronide G1, % of control metabolism, raloxifene G1, UGT1A1
[12] = Supersomes with recombinant human UGT1A1, pH 7.5, probe raloxifene 50 μM, formation of glucuronide G1, Inhibition of raloxifene glucuronidation, G1, UGT1A1, G1, raloxifene 50 μM, 250 μg/ml Supersomes, 1 mM UDPGA, 15 min
[13] = Supersomes with recombinant human UGT1A1, pH 7.5, probe raloxifene 50 μM, formation of glucuronide G2, % of control metabolism, raloxifene G2, UGT1A1
[14] = recombinant UGT1A1 Supersomes, pH 7.5, probe raloxifene 50 μM (formation of glucuronide G2), Inhibition of raloxifene glucuronidation, G2, UGT1A1, G2, raloxifene 50 μM, 250 μg/ml Supersomes, 1 mM UDPGA, 15 min

Inhibition of raloxifene glucuronidation, UGT1A9, first line per inhibitor (G1) ([1]; inhibitor 2 μM): 90 (0)
Inhibition of raloxifene glucuronidation, UGT1A9, first line per inhibitor (G1) ([1]; inhibitor 5 μM): 86 (0)
Inhibition of raloxifene glucuronidation, UGT1A9, first line per inhibitor (G1) ([1]; inhibitor 10 μM): 78 (3)
Inhibition of raloxifene glucuronidation, UGT1A9, first line per inhibitor (G1) ([1]; inhibitor 25 μM): 49 (5)
Inhibition of raloxifene glucuronidation, UGT1A9, first line per inhibitor (G1) ([1]; inhibitor 50 μM): 31 (2)
activity at 15 min, 2 μM ([1]; formation of glucuronide G1, % of control metabolism, raloxifene G1, UGT1A9, inhibitor 2 μM): 90%
activity at 15 min, 5 µM ([1]; formation of glucuronide G1, % of control metabolism, raloxifene G1, UGT1A9, inhibitor 5 μM): 86%
activity at 15 min, 10 µM ([1]; formation of glucuronide G1, % of control metabolism, raloxifene G1, UGT1A9, inhibitor 10 μM): 78%
activity at 15 min, 25 µM ([1]; formation of glucuronide G1, % of control metabolism, raloxifene G1, UGT1A9, inhibitor 25 μM): 49%
activity at 15 min, 50 µM ([1]; formation of glucuronide G1, % of control metabolism, raloxifene G1, UGT1A9, inhibitor 50 μM): 31%
activity at 15 min, 2 μM ([1]; formation of glucuronide G2, % of control metabolism, raloxifene G2, UGT1A9, inhibitor 2 μM): 175%
activity at 15 min, 5 µM ([1]; formation of glucuronide G2, % of control metabolism, raloxifene G2, UGT1A9, inhibitor 5 μM): 260%
activity at 15 min, 10 µM ([1]; formation of glucuronide G2, % of control metabolism, raloxifene G2, UGT1A9, inhibitor 10 μM): 290%
activity at 15 min, 25 µM ([1]; formation of glucuronide G2, % of control metabolism, raloxifene G2, UGT1A9, inhibitor 25 μM): 309%
activity at 15 min, 50 µM ([1]; formation of glucuronide G2, % of control metabolism, raloxifene G2, UGT1A9, inhibitor 50 μM): 245%
Inhibition of raloxifene glucuronidation, UGT1A9, second line per inhibitor (G2) ([1]; inhibitor 2 μM): 175 (0)
Inhibition of raloxifene glucuronidation, UGT1A9, second line per inhibitor (G2) ([1]; inhibitor 5 μM): 260 (3)
Inhibition of raloxifene glucuronidation, UGT1A9, second line per inhibitor (G2) ([1]; inhibitor 10 μM): 290 (9)
Inhibition of raloxifene glucuronidation, UGT1A9, second line per inhibitor (G2) ([1]; inhibitor 50 μM): 245 (3)
percentage of control metabolism, 7-HFC glucuronidation ([2]; inhibitor 25 μM): 57 (1) %
% of control metabolism (SD, n = 3), 7-HFC glucuronidation ([2]; inhibitor 25 μM): 57 (1) %
percentage of control metabolism, 7-HFC glucuronidation ([2]; inhibitor 50 μM): 34 (2) %
% of control metabolism (SD, n = 3), 7-HFC glucuronidation ([2]; inhibitor 50 μM): 34 (2) %
percentage of control metabolism, 7-HFC glucuronidation ([2]; inhibitor 100 μM): 11 (1) %
% of control metabolism (SD, n = 3), 7-HFC glucuronidation ([2]; inhibitor 100 μM): 11 (1) %
percentage of control metabolism, 7-HFC glucuronidation ([2]; inhibitor 200 μM): 1 (0) %
% of control metabolism (SD, n = 3), 7-HFC glucuronidation ([2]; inhibitor 200 μM): 1 (0) %
percentage of control metabolism, 7-HFC glucuronidation ([2]; inhibitor 500 μM): 0.1 (0) %
% of control metabolism (SD, n = 3), 7-HFC glucuronidation ([2]; inhibitor 500 μM): 0.1 (0) %
residual metabolism (% of control), E2-3-β-D-glucuronide ([3]; liver 032101, inhibitor 1 μM): 85 (1), %
residual metabolism (% of control), E2-17-β-D-glucuronide ([3]; liver 032101, inhibitor 1 μM): 361 (6) %
residual metabolism (% of control), E2-3-β-D-glucuronide ([3]; liver 032101, inhibitor 10 μM): 57 (4), %
residual metabolism (% of control), E2-17-β-D-glucuronide ([3]; liver 032101, inhibitor 10 μM): 545 (32) %
residual metabolism (% of control), E2-3-β-D-glucuronide ([3]; liver 062101, inhibitor 1 μM): 86 (3) %
residual metabolism (% of control), E2-17-β-D-glucuronide ([3]; liver 062101, inhibitor 1 μM): 254 (2) %
residual metabolism (% of control), E2-3-β-D-glucuronide ([3]; liver 062101, inhibitor 10 μM): 71 (2) %
residual metabolism (% of control), E2-17-β-D-glucuronide ([3]; liver 062101, inhibitor 10 μM): 446 (7) %
residual metabolism (% of control), E2-17-β-D-glucuronide [4]: 217 (5) %
residual metabolism (% of control), E2-3-β-D-glucuronide [5]: 69 (1), %
% of control metabolism, raloxifene G1 [6]: 78 (0) %
% of control metabolism, raloxifene G2 [6]: 90 (4) %
activity at 15 min ([7]; Supersomes with recombinant human UGT1A1, pH 7.5, probe raloxifene 50 μM, formation of glucuronide G1): 59%
activity at 15 min, 10 µM [7, 11]: 59%
activity at 15 min, 25 µM [7, 11]: 26%
activity at 15 min, 50 µM [7, 11]: 12%
activity at 15 min, 25 µM [7, 12]: 26%
activity at 15 min, 50 µM [7, 12]: 12%
activity at 15 min, 10 µM [7, 13]: 72%
activity at 15 min, 25 µM [7, 13]: 41%
activity at 15 min, 50 µM [7, 13]: 27%
activity at 15 min ([7]; recombinant UGT1A1 Supersomes, pH 7.5, probe raloxifene 50 μM (formation of glucuronide G2)): 72%
activity at 15 min, 25 µM [7, 14]: 41%
activity at 15 min, 50 µM [7, 14]: 27%
residual metabolism (percentage of control), labetalol LG1 ([8]; inhibitor 50 μM): 23 (3) %
residual metabolism (percentage of control), labetalol LG2 ([8]; inhibitor 50 μM): 29 (8) %
residual metabolism (percentage of control), labetalol LG1 ([8]; inhibitor 100 μM): 1 (3) % and 5 (3) %
residual metabolism (percentage of control), labetalol LG2 ([8]; inhibitor 100 μM): 11 (1) % and 8 (1) %
Vmax of 7-HFC glucuronidation (fit of the experiment with this inhibitor) [9]: 64 ± 4 nmol/min/mg
Km ([9]; read-out: Km of 7-HFC glucuronidation (fit of the experiment with this inhibitor)): 87 ± 7 µM
residual metabolism (% of control), E2-3-β-D-glucuronide ([10]; inhibitor 1 μM): 86 (2) %
residual metabolism (% of control), E2-17-β-D-glucuronide ([10]; inhibitor 1 μM): 108 (5) %
residual metabolism (% of control), E2-3-β-D-glucuronide ([10]; inhibitor 10 μM): 53 (4) %
residual metabolism (% of control), E2-17-β-D-glucuronide ([10]; inhibitor 10 μM): 78 (3) %
residual metabolism (% of control), E2-3-β-D-glucuronide ([10]; inhibitor 100 μM): 5 (1) %
residual metabolism (% of control), E2-17-β-D-glucuronide ([10]; inhibitor 100 μM): 24 (4) %
Compound: CC/C(=C(/CC)c1ccc(O)cc1)c1ccc(O)cc1 [Diethylstilbestrol, reference compound]
